Measurements taken from article PMC13286573, “Exploration of precision coregulator TR-FRET identifies diverse signatures for LXR ligands relevant to discovery of nonlipogenic ABCA1 inducers” (eLife, 2026).
pEC50: −log10 of the molar value. Entries after “also recorded” stand apart in the source; their conditions may differ.

How the values were obtained:
[1] = test system: LXR; parameters: method as in Belorusova et al., 2019; conditions: ref Belorusova et al., 2019; cited from earlier work
[2] = test system: ABCA1; assay: ABCA1-luc reporter assay in CCF-STTG1 astrocytoma cells; format: cell-based, human
Description: Astrocytoma CCF-STTG1 cells, stably transfected with an ABCA1-promoter linked to a luciferase response element, provide a model for ABCA1 induction in astrocytes ([Ben Aissa et al., 2021]). […] Apparent inverse agonist activity in cell-based assays can result from ‘true’ inverse agonist recruitment of corepressors or from antagonist activity towards endogenous sterol LXR agonists. Although we use serum-stripped media, antagonism of endogenous LXR agonists cannot be ruled out.
Low passage CCF-STTG1 cells (20,000 cells/well) were seeded in 96-well plates in media containing charcoal-stripped FBS and incubated at 37 °C and 5% CO2 for 24 hr prior to a 24 hr treatment. All compounds were dissolved in DMSO, and final DMSO concentrations never exceeded 1%. After a 24 hr incubation period, add a volume of ONE-GLOEX Reagent that is equal to the volume of culture medium in each well and incubate for 3–5 min on the shaker. The luminescent activity of compounds ([…], 10-fold dilution) was examined using the ONE-GLOEX assay (Promega). […] The assays were performed in duplicates for each concentration, and the EC50 values were determined from non-linear regression analysis of the dose-response curve generated in GraphPad Prism 9.

[3] = target: T1, LXRβ (Homo sapiens, UniProt P55055); assay: NCOR2 corepressor binding to LXRβ, CRT; format: biochemical; parameters: The CRT selectivity assay incorporates GST-tagged LXR-LBD; purchased Thermo Fisher Scientific PV4660; conditions: ligand 1 µM, interpolated from concentration-response, normalized; heat map Figure 9A; read-out: NCOR2β, relative % activity at 1 μM
T1 sequence (P55055 222-460 limits assumed): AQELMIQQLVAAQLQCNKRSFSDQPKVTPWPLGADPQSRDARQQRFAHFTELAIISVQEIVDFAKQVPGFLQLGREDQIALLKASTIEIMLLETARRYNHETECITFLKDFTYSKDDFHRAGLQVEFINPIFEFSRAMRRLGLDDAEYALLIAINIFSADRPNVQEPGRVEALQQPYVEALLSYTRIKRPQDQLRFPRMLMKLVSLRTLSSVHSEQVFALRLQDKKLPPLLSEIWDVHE

[4] = test system: sterol response element (SRE); assay: SRE-luc reporter assay in HepG2 cells; format: cell-based, human; conditions: concentrations ≤1 µM
Description: Our phenotypic high-throughput screen (HTS) approach to identify nonlipogenic ABCA1 Inducers (NLAI) originally used counterscreening with a SREBP1c-luciferase reporter (linked to the SREBF1 gene promoter) in human hepatocarcinoma HepG2 cells ([Ben Aissa et al., 2021]). Unwanted lipogenesis is mediated by LXR agonists via direct transcriptional activation and indirectly by the effects of SREBP1c ([Schultz et al., 2000]; [Brown and Goldstein, 1997]). SREBP1c enhances transcription of genes required for synthesis of fatty acids and TG and as the dominant isoform in liver is associated most closely with lipogenesis and TG elevation ([Brown and Goldstein, 1997]). […] Binding of SREBP1c to the sterol response element (SRE) induces transcription of lipogenic genes associated with elevated TG. To better model the lipogenic axis in hepatocytes, we use HepG2 cells stably transfected with a nanoluciferase reporter downstream of a SRE promoter (SRE-luc), activation of which requires SREBP1c maturation.
HepG2 cells were cotransfected with SRE (LDLR)-NlucP SuperPiggyBac Transposon and a separate Transposase plasmid (System Biosciences). Cells were expanded for multiple passages followed by selection with puromycin (1 μg/ml). Stable cells constitutively express GFP allowed for FACS enrichment and/or cell cloning. Initially, stable pools were compared to low expressing and high expressing enriched pools. The optimal pool was selected based on assay performance (Z’) and was grown and maintained as above, with the addition of 1.0 μg/mL of puromycin biweekly.
Cells were split into flasks containing CS medium (EMEM supplemented with 10% charcoal stripped FBS (Gibco A52567-01)) and 1% P/S and grown at 37 °C /5% CO2 for 48 hr before plating. Cells were plated in 384-well, white clear tissue culture plates (Greiner 781098) and allowed to grow at 37 °C /5% CO2 for 24 hr before medium was aspirated and compound dilutions prepared in CS medium were added. Following a 24 hr incubation, the medium was aspirated, and cells were lysed/luminescence quantified using the Nano-Glo Luciferase Assay System (Promega N1130).

[5] = target: T2, LXRα (Homo sapiens, UniProt Q13133); assay: Multiplex precision CRT (pCRT), SRC1 and NCOR2, LXRα; format: biochemical; parameters: The CRT selectivity assay incorporates GST-tagged LXR-LBD; purchased Thermo Fisher Scientific PV4657; conditions: presence of SRC1, saturating ligand
T2 sequence (Q13133 209-447 limits assumed): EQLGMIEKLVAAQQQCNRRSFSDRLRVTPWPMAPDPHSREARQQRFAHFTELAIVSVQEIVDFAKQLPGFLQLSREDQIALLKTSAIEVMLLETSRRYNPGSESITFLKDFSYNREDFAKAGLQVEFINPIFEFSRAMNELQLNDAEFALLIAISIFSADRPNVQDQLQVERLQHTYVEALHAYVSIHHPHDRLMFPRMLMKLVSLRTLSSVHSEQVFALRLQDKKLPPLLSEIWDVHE

[6] = test system: LXR; assay: Corepressor (NCOR2, SMRT2) binding to LXR, CRT, statements across isoforms; format: biochemical; conditions: monoplex CRT, absence of coactivator
[7] = target: T2, LXRα; assay: NCOR2 corepressor binding to LXRα, CRT; format: biochemical; parameters: The CRT selectivity assay incorporates GST-tagged LXR-LBD; purchased Thermo Fisher Scientific PV4657; conditions: ligand 1 µM, interpolated from concentration-response, normalized; heat map Figure 9A; read-out: NCOR2α, relative % activity at 1 μM
[8] = target: T2, LXRα; assay: SMRT2 corepressor binding to LXRα, CRT; format: biochemical; parameters: The CRT selectivity assay incorporates GST-tagged LXR-LBD; purchased Thermo Fisher Scientific PV4657; conditions: ligand 1 µM, interpolated from concentration-response, normalized; heat map Figure 9A; read-out: SMRT2α, relative % activity at 1 μM
[9] = target: T1, LXRβ; assay: SMRT2 corepressor binding to LXRβ, CRT; format: biochemical; parameters: The CRT selectivity assay incorporates GST-tagged LXR-LBD; purchased Thermo Fisher Scientific PV4660; conditions: ligand 1 µM, interpolated from concentration-response, normalized; heat map Figure 9A; read-out: SMRT2β, relative % activity at 1 μM
[10] = test system: human volunteers; conditions: 2016, cited from earlier work
[11] = target: T1, LXRβ; assay: SRC-1 coactivator recruitment to LXRβ, coregulator TR-FRET (CRT); format: biochemical; parameters: The CRT selectivity assay incorporates GST-tagged LXR-LBD; purchased Thermo Fisher Scientific PV4660; conditions: biotin-SRC-1 CRT; read-out: Potency (EC50) for SRC-1 recruitment to LXRβ
[12] = target: T1, LXRβ; assay: Multiplex precision CRT (pCRT), SRC1 and NCOR2, LXRβ; format: biochemical; parameters: The CRT selectivity assay incorporates GST-tagged LXR-LBD; purchased Thermo Fisher Scientific PV4660; conditions: presence of SRC1

Compound: CC(C)(O)c1cn(-c2ccc(-c3cc(F)c(CO)c(S(C)(=O)=O)c3)cc2F)c(C(C)(C)c2c(Cl)cccc2Cl)n1 [XL041]
- Ligand behaviour in HDX-MS analysis (H12 conformation) [1]: act as an antagonist
- Selectivity for ABCA1 induction versus SRE activation (potency correlation outliers) ([2]; CCF ABCA1-luc versus HepG2 SRE-luc): selectivity for ABCA1 induction
- ABCA1 induction response/phenotype in CCF cells ([2]; normalized to T0): partial agonist response
- activity at 1 µM [3]: 129%
- Efficacy of SRE activation at concentrations ≤1 µM [4]: 20–25 % of T0
- Maximal signal for NCOR2-bound LXRα in pCRT [5]: significantly higher than zero
- Corepressor (NCOR2, SMRT2) displacement or stabilization, across LXR isoforms [6]: stabilized LXR complexes with corepressor bound; also recorded: strongly stabilized the corepressor-bound conformation
- activity at 1 µM [7]: 142%
- activity at 1 µM [8]: 152%
- activity at 1 µM [9]: 153%
- Cmax ([10]; human, 2.5 mg/kg p.o., Day 14, ref Kirchgessner et al., read-out: Cmax, drug concentration in plasma): ~30 nM
- T½ ([10]; human, ref Kirchgessner et al.): ≈ 13 hr
- Adverse effects in clinical trials ([10]; multi-day dosing, healthy and statin-treated subjects, ref Kirchgessner et al.): elevated plasma and liver lipids and neutropenia
- ABCA1 expression in trial subjects ([10]; ref Katz et al., 2009, Kirchgessner et al.): increased ABCA1 expression in trial subjects
- pEC50 [11]: 8.00
- NCOR2 displacement from LXRβ in pCRT [12]: fully displaced
